Eleven molecules from patent US8178087B2, “Process of production of bacteriophage compositions and methods in phage therapy field” (priority 2006, dated 2012) can be followed below.

Experiment [1] relates to non-infected E. coli MFP. The experiment is described as follows: antibiotic sensitivity test disks on non-infected MFP strain. It is filed as cell-based, Escherichia coli. As to conditions: FIG. 1.
Experiment [2] has as its system φmF-infected E. coli MFP. Description: φmF plaque size around antibiotic disks on MFP strain. The class given is cell-based, Escherichia coli. From the text: A culture of non-infected MFP strain has been grown overnight in LB liquid medium, and then a dilution of the culture either alone or mixed with φmF phage have been inoculated on a series of nutrient Petri plate where different antibiotic sensitivity test disks were placed on the surface.
The entire surface of the Petri plate was inoculated with a mixture of both the MFP bacterial host and with the phage φmF that could infect it (see FIG. 1, φmF-infected E. coli MFP).

Experiment [3] relates to uropathogenic Escherichia coli strain. The experiment is described as follows: antibiotic sensitivity test disks on Petri plate inoculated with child's urine (phage plaques around disks). The class given is cell-based. As to conditions: plate inoculated with dilution of child's urine; strain infected by bacteriophages.
In experiment [4] the test system is AS19 bacterial strain. Description: different antibiotic test disks, T4-type phages on AS19 bacterial strain. It is filed as cell-based, E. coli. Conditions: T4-like phages.
For experiment [5], the system named is Escherichia. coli bacterial strain S/6. Description: T4 plaque size with CTX disk on bacterial strain S/6. On the set-up: key to the marks not given beside the values. Conditions: bacterial strain S/6, bacteriophage T4, CTX test disk.
Experiment [6] relates to Escherichia. coli bacterial strain AS19. The experiment is described as follows: T4 plaque size with CTX disk on bacterial strain AS19. The class given is cell-based. On the set-up: key to the marks not given beside the values. Conditions: bacterial strain AS19, bacteriophage T4, CTX test disk.
For experiment [7], the system named is AS19 bacterial strain. Description: growth of AS19 bacterial strain in LB liquid medium with low dose CTX (OD600, CFU/ml). Conditions: CTX 0.003 μg/ml. The class given is cell-based, E. coli. The method, then: Growth was measured either by OD600 (A) or CFU/ml (B). The times (T) is indicated in minutes after addition of CTX to the growth medium.
To examine the effect of low doses of the β-lactam antibiotic CTX on a culture of the AS19 bacterial strain, this bacterial strain was grown in LB liquid medium with CTX at a dosage level (0.003 μg/ml) that produces a substantial effect synergistic when infected with T4 phage.

Experiment [8] has as its system Escherichia. coli bacterial strain MC1061. Description: T4 plaque size with CTX disk on bacterial strain MC1061. As to conditions: bacterial strain MC1061, bacteriophage T4, CTX test disk.
Experiment [9] relates to Escherichia. coli bacterial strain C600. The experiment is described as follows: T4 plaque size with CTX disk on bacterial strain C600. As to conditions: bacterial strain C600, bacteriophage T4, CTX test disk.
Experiment [10] has as its system Escherichia. coli bacterial strain P400. The experiment is described as follows: T4 plaque size with CTX disk on bacterial strain P400. It is filed as cell-based. Conditions: bacterial strain P400, bacteriophage T4, CTX test disk.
Experiment [11] concerns AS19 bacterial strain. The experiment is described as follows: morphology of T4 infected AS19 bacteria with or without CTX by optical microscopy. The class given is cell-based, E. coli. As to conditions: CTX 0.003 μg/ml, several hours after infection, FIG. 4. From the text: The morphology of the bacteria in culture has been observed by optical microscopy at different times after infection.

The test system of experiment [12] is Escherichia. coli bacterial strain BE. Description: T4 plaque size with CTX disk on bacterial strain BE. It is filed as cell-based. On the set-up: key to the marks not given beside the values. Conditions: bacteriophage T4, CTX test disk.

Turning to `C[C@H]1[C@H](NC(=O)/C(=N\OC(C)(C)C(=O)O)c2csc(N)n2)C(=O)N1S(=O)(=O)O` [ATM, aztreonam], the “sensitivity or resistance of the MFP bacterial strain to antibiotic (zone of growth inhibition around disks)” value in [1] is “sensitivity”. Besides, in [2] (FIG. 1, disks marked with +), the “stimulation of phage φMFP growth by antibiotic disks” value is reported as “good stimulation”. In addition, the “size of φmF plaques in the zone of non lethal antibiotic concentration around disks” value in experiment [2] (MFP host mixed with phage φmF, FIG. 1) was “significantly larger size”. The “size of phage plaques in the zone of non lethal concentrations of antibiotic that encircled antibiotic disks” value in [3] is reported as “much larger”.
`NCC[C@H](O)C(=O)N[C@@H]1C[C@H](N)[C@@H](O[C@H]2O[C@H](CN)[C@@H](O)[C@H](O)[C@H]2O)[C@H](O)[C@H]1O[C@H]1O[C@H](CO)[C@@H](O)[C@H](N)[C@H]1O` [Amikacin]: the “stimulation of T4 phage production (synergistic effect on phage T4 growth)” value (“stimulation of T4 phage production” below) in experiment [4] was “failed to stimulate T4 phage production”.
For the molecule `CC1(C)S[C@@H]2[C@H](NC(=O)[C@H](N)c3ccc(O)cc3)C(=O)N2[C@H]1C(=O)O` [Amoxicillin], the “sensitivity or resistance of the MFP bacterial strain to antibiotic (zone of growth inhibition around disks)” value in [1] was “resistance”.
Take `CO/N=C(\C(=O)N[C@@H]1C(=O)N2C(C(=O)O)=C(COC(C)=O)CS[C@H]12)c1csc(N)n1` [CTX, Cefotaxime]: the “synergy (size of phage plaques) with CTX (Cefotaxime)” value in experiment [5] is “++”; in experiment [6], “+++”; in [8] it was “+”; in experiment [9], “+”; in [10], “+”; in [12] it was “+++”. Besides, in [7] (LB liquid medium), the “cell viability as assayed by colony forming units” value is “little effected”. In addition, the cell division result in experiment [7] (LB liquid medium, FIGS. 3A and 3B) was “inhibited”. Further, in experiment [7] (after the addition of the drug), the “optical density of the culture treated with the drug” value is given as “continues to increase for at least two hours”. In [11], the “cell size of the T4 infected bacteria” value is “increases in volume considerably producing long fat filaments”.
For `O=C(N[C@H](CO)[C@H](O)c1ccc([N+](=O)[O-])cc1)C(Cl)Cl` [Choramphenicol], the “stimulation of T4 phage production” value in [4] was “failed to stimulate T4 phage production”.
On the same count and under the same terms, then `C[C@@H]1O[C@@H]1P(=O)(O)O` [Fosfomycin], with “failed to stimulate T4 phage production”.
Still for that read-out and setting: with `CCn1cc(C(=O)O)c(=O)c2ccc(C)nc21` [Nalidix Acid, Nalidixic acid] the entry was “causes a synergistic effect”.
For the molecule `CO[C@H]1/C=C/O[C@@]2(C)Oc3c(C)c(O)c4c(O)c(c(/C=N/N5CCN(C)CC5)c(O)c4c3C2=O)NC(=O)/C(C)=C\C=C\[C@H](C)[C@H](O)[C@@H](C)[C@@H](O)[C@@H](C)[C@H](OC(C)=O)[C@@H]1C` [Rifampin], the “stimulation of T4 phage production” value in experiment [4] was “failed to stimulate T4 phage production”.
Still for that read-out and setting: with `COc1cc(Cc2cnc(N)nc2N)cc(OC)c1OC` [Trimethoprim] the entry was “failed to stimulate T4 phage production”; with Colistin, “failed to stimulate T4 phage production”.
Same read-out and setting: then Gentamicin, with “failed to stimulate T4 phage production”.
